Among the test systems are 786-0 renal; HCT-116 colon; HL-60(TB) leukemia; HOP-62 NSCLC; OVCAR-8 ovarian; RXF 393 renal; SK-MEL-28 melanoma; SN12C renal; SW-620 colon.
Common to all, as to assay: growth of human tumour cells (NCI), 48 h

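Cultured in 96-well plates, cells were exposed to test compound for 48 hours across five concentrations. The concentration for full growth arrest is given as TGI.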

Here are results for 14 compounds from PubChem BioAssay (NCI).

For the compound `O=C(Cc1ccccc1)NN1C(=O)C(Cl)C1c1ccccc1Cl` (stereo unspecified), the TGI in the assay with 786-0 renal, in the assay with HCT-116 colon, in the assay on HL-60(TB) leukemia, in the assay on HOP-62 NSCLC, with OVCAR-8 ovarian and in the assay on RXF 393 renal was greater than 100 µM each time. Moreover, the TGI in the assay with SK-MEL-28 melanoma, in the assay with SN12C renal and in the assay with SW-620 colon was greater than 100 µM in each case.

Regarding `Cc1cc2ncn(-c3nc4ccccc4nc3C(C#N)S(C)(=O)=O)c2cc1C` (stereo unspecified), the TGI with 786-0 renal, in the assay with HCT-116 colon, with HL-60(TB) leukemia, in the assay on HOP-62 NSCLC, in the assay with OVCAR-8 ovarian and in the assay on SK-MEL-28 melanoma was greater than 100 µM throughout. Besides, the TGI in the assay on SN12C renal and in the assay on SW-620 colon was greater than 100 µM in each case.

Regarding `N#CCCn1[nH]c(=O)c(Cl)c(Cl)c1=O`, the TGI amounted to 39.6 µM in the assay with 786-0 renal; 29.1 µM in the assay with HCT-116 colon; 35.5 µM with HL-60(TB) leukemia; 32.9 µM in the assay with OVCAR-8 ovarian; 32.2 µM in the assay on RXF 393 renal; 30.9 µM in the assay with SK-MEL-28 melanoma. Further, the TGI in the assay with SN12C renal was found to be 32.5 µM; in the assay with SW-620 colon, 31.8 µM.

For the compound `COC(=O)C(=O)C(C(=O)OC)C(=O)C(=O)Nc1c(C)cccc1C` (stereo unspecified), the TGI in the assay on 786-0 renal, in the assay with HCT-116 colon, in the assay with HL-60(TB) leukemia, with HOP-62 NSCLC, in the assay with OVCAR-8 ovarian and in the assay with RXF 393 renal was greater than 100 µM throughout. Moreover, the TGI in the assay on SK-MEL-28 melanoma, with SN12C renal and in the assay with SW-620 colon was greater than 100 µM throughout.

As to `CN(C)CCNc1ccc2ncn3c4ccccc4c(=O)c1c23`, the TGI in the assay on 786-0 renal is 13.9 µM; in the assay with HCT-116 colon, 12 µM; in the assay on HL-60(TB) leukemia it was greater than 100 µM; with HOP-62 NSCLC it was 19.4 µM; in the assay with OVCAR-8 ovarian it was 10.7 µM; in the assay on SK-MEL-28 melanoma it was 15.2 µM. The values for the TGI in the assay on SN12C renal and with SW-620 colon were 38.4 µM and 12.9 µM, respectively.

Regarding `CC(C)c1cccc(C(C)C)c1NC(=O)C(=O)Cc1nc2ccc([N+](=O)[O-])cc2[nH]c1=O`, the TGI in the assay with 786-0 renal, in the assay with HCT-116 colon, in the assay on HL-60(TB) leukemia, in the assay on RXF 393 renal, in the assay with SK-MEL-28 melanoma and with SW-620 colon was greater than 100 µM in each case.

In the case of `CCCCCCCC/C=C1\CCC(CN(C)C)C1=O` (stereo unspecified), the TGI in the assay with 786-0 renal turned out to be 2.88 µM; with HCT-116 colon, 7.34 µM; with HL-60(TB) leukemia, 22.2 µM; in the assay on HOP-62 NSCLC, 24.7 µM; with OVCAR-8 ovarian it was 9.67 µM; with SK-MEL-28 melanoma, 13.3 µM. Also, the TGI was determined as 14.6 µM with SN12C renal and 8.69 µM in the assay on SW-620 colon.

With `CCOc1ccccc1N=Nc1ccc2oc(=O)c(C(C)=O)cc2c1`, the TGI in the assay with 786-0 renal, in the assay on HCT-116 colon, in the assay with HL-60(TB) leukemia, with HOP-62 NSCLC, in the assay on OVCAR-8 ovarian and in the assay on SK-MEL-28 melanoma was greater than 100 µM each time. For the same compound, the TGI in the assay with SN12C renal and in the assay with SW-620 colon was greater than 100 µM throughout.

Consider `Nc1nncc2c1c(Br)cn2C1OC(CO)C(O)C1O` (stereo unspecified), for which the TGI in the assay with 786-0 renal, in the assay on HCT-116 colon, in the assay on HL-60(TB) leukemia, with HOP-62 NSCLC, in the assay with RXF 393 renal and with SK-MEL-28 melanoma was greater than 100 µM in each case. Further, the TGI in the assay with SN12C renal and in the assay on SW-620 colon was greater than 100 µM each time.

Take `CCOC(=O)c1c2ccc(/C=C/c3ccccn3)ccc-2c(C(=O)OCC)c1N`: the TGI in the assay on 786-0 renal is greater than 100 µM; in the assay on HL-60(TB) leukemia, greater than 100 µM; with RXF 393 renal it was greater than 100 µM; in the assay on SK-MEL-28 melanoma, 1.49 µM; in the assay on SW-620 colon it was greater than 100 µM.

Regarding `COC(=O)C1CC2C=CC=CC(=O)C2(C)C1` (stereo unspecified), the TGI in the assay on 786-0 renal is greater than 100 µM; in the assay with HCT-116 colon it was 86.3 µM; with HL-60(TB) leukemia it was 55.1 µM; in the assay on HOP-62 NSCLC it was greater than 100 µM; with OVCAR-8 ovarian it was greater than 100 µM; with SN12C renal it was greater than 100 µM. Also, in the assay on SW-620 colon, the TGI amounted to 90.1 µM.

`COc1ccc(N2C(=O)c3c(c4[nH]c5ccccc5c4c4ccc(C(C)(C)C)cc34)C2=O)cc1`: the TGI in the assay with 786-0 renal was greater than 100 µM; in the assay on HCT-116 colon, greater than 100 µM; in the assay with HOP-62 NSCLC, greater than 100 µM; in the assay on OVCAR-8 ovarian, 63.6 µM; with RXF 393 renal, 98.1 µM; with SK-MEL-28 melanoma, greater than 100 µM. Further, the TGI in the assay on SN12C renal and in the assay on SW-620 colon was greater than 100 µM each time.

`CC1=C(c2nc3ccccc3s2)C(=O)OC1(C)C`: the TGI in the assay on 786-0 renal, in the assay with HCT-116 colon, in the assay with HOP-62 NSCLC, with OVCAR-8 ovarian, with SK-MEL-28 melanoma and in the assay on SN12C renal was greater than 100 µM each time. This compound showed a TGI in the assay with SW-620 colon greater than 100 µM.

Consider `Cc1c(O)c(=O)ccn1CCN`, for which the TGI with 786-0 renal, in the assay on HCT-116 colon, in the assay with OVCAR-8 ovarian, with RXF 393 renal, in the assay with SK-MEL-28 melanoma and with SN12C renal was greater than 100 µM each time. In the assay on SW-620 colon, the TGI is greater than 100 µM.
